# Assays:
# Format in all cases: cell-based
# Streptococcus pyogenes = assay: MIC, agar with 5% horse blood, Streptococcus pyogenes; conditions: agar with 5% defibrinated horse blood, 10^4 CFU/spot, 37° C., 5% carbon dioxide, 48 hours
# Experimental: (§1) The following results were obtained on a standard in-vitro test system. The activity is described in terms of the minimum inhibitory concentration (MIC) determined by the agar-dilution technique with an inoculum size of 10^4 CFU/spot. Typically, compounds are active in the range 0.01 to 256 μg/ml.
# (§2) Streptococci and enterococci were tested on agar supplemented with 5% defibrinated horse blood, an inoculum of 10^4 CFU/spot and an incubation temperature of 37° C. in an atmosphere of 5% carbon dioxide for 48 hours—blood is required for the growth of some of the test organisms. Fastidious Gram negative organisms were tested in Mueller-Hinton broth, supplemented with hemin and NAD, grown aerobically for 24 hours at 37° C., and with an innoculum of 5×10^4 CFU/well.
# Haemophilus influenzae = assay: MIC, Mueller-Hinton broth, Haemophilus influenzae; conditions: Mueller-Hinton broth with hemin and NAD, aerobic, 24 hours, 37° C., 5×10^4 CFU/well
# Experimental: as §1, §2
# [1] = test system: Staphylococcus aureus MRQR (methicillin resistant and quinolone resistant); assay: MIC, agar-dilution, Staphylococcus aureus MRQR; conditions: inoculum 10^4 CFU/spot, 37° C., 24 hours
# Experimental: as §1
# (§3) Staphylococci were tested on agar, using an inoculum of 10^4 CFU/spot and an incubation temperature of 37° C. for 24 hours—standard test conditions for the expression of methicillin resistance.
# [2] = test system: Staphylococcus aureus MSQS (methicillin sensitive and quinolone sensitive); assay: MIC, agar-dilution, Staphylococcus aureus MSQS; conditions: inoculum 10^4 CFU/spot, 37° C., 24 hours
# Experimental: as §1, §3
# Streptococcus pneumoniae = assay: MIC, agar with 5% horse blood, Streptococcus pneumoniae; conditions: agar with 5% defibrinated horse blood, 10^4 CFU/spot, 37° C., 5% carbon dioxide, 48 hours
# Experimental: as §1, §2
# Moraxella catarrhalis = assay: MIC, Mueller-Hinton broth, Moraxella catarrhalis; conditions: Mueller-Hinton broth with hemin and NAD, aerobic, 24 hours, 37° C., 5×10^4 CFU/well
# Experimental: as §1, §2
smiles,measurement,setting,value
"Fc1cc(C2=NOC(Cn3ccnn3)C2)ccc1N1CCNCC1 (racemic) [Example 7, (5RS)-3-(3-Fluoro-4-piperazin-1-ylphenyl)-5-(1,2,3-triazol-1-yl-methyl)-4,5-dihydroisoxazole]",MIC,Streptococcus pyogenes,2 mg/L
same,MIC,Haemophilus influenzae,32 mg/L
same,MIC,[1],16 mg/L
same,MIC,[2],8 mg/L
same,MIC,Streptococcus pneumoniae,1 mg/L
same,MIC,Moraxella catarrhalis,32 mg/L

# From patent US7022705B2, “Isoxazoline derivatives useful as antimicrobials” (AstraZeneca AB, priority 2001, dated 2006)
